According to US10364226B2, “Pyridazinone compounds and uses thereof” (priority 2013, dated 2019):

Molecular target: EN PA (Influenza A virus, UniProt P15659)
Assay: EN PA FRET Inhibition Assay
Type: biochemical
Conditions: read-out: Potency

CC(C)(C)c1ccc(-n2cc(O)c(=O)c(C(=O)O)n2)cc1 [Compound 3, 1-(4-tert-butylphenyl)-5-hydroxy-4-oxo-1,4-dihydropyridazine-3-carboxylic acid] gave an IC50 of 100 to 1000 nM.
For COc1cccc(-n2cc(O)c(=O)c(C(=O)O)n2)c1 [Compound 5], the IC50 was 100 to 1000 nM.
CC(C)c1ccccc1-n1cc(O)c(=O)c(C(=O)O)n1 [Compound 8] was tested, and the IC50 was ≥ 1000 nM.
In the case of Cc1cccc(C)c1-n1cc(O)c(=O)c(C(=O)O)n1 [Compound 12], the IC50 is reported as 100 to 1000 nM.
In the case of COc1ccc(-c2ccccc2)cc1-n1cc(O)c(=O)c(C(=O)O)n1 [Compound 13], the IC50 is reported as 100 to 1000 nM.
O=C(O)c1nn(-c2ccccc2OC(F)F)cc(O)c1=O [Compound 14] was tested, and the IC50 was ≥ 1000 nM.
Molecule Cc1ccc2cccc(-n3cc(O)c(=O)c(C(=O)O)n3)c2n1 [Compound 15] has an IC50 of 100 to 1000 nM.
Molecule CC(C)(C)c1ccccc1-n1cc(O)c(=O)c(C(=O)O)n1 [Compound 16] has an IC50 of 100 to 1000 nM.
CCCCNS(=O)(=O)c1cccc(-n2cc(O)c(=O)c(C(=O)O)n2)c1 [Compound 22] showed an IC50 of 100 to 1000 nM.
CCOc1ccccc1-n1cc(O)c(=O)c(C(=O)O)n1 [Compound 23] gave an IC50 of 100 to 1000 nM.
For CCCCOc1ccc(-n2cc(O)c(=O)c(C(=O)O)n2)cc1 [Compound 25], the IC50 was ≥ 1000 nM.
COc1cc(OC)cc(-n2cc(O)c(=O)c(C(=O)O)n2)c1 [Compound 26] gave an IC50 of 100 to 1000 nM.
In the case of O=C(O)c1nn(-c2ccc(C(F)(F)F)cc2)cc(O)c1=O [Compound 27], the IC50 is reported as 100 to 1000 nM.
In the case of O=C(O)c1nn(-c2ccc(N3CCCCC3)cc2)cc(O)c1=O [Compound 28], the IC50 is reported as ≥ 1000 nM.
For O=C(O)c1nn(-c2ccccc2CCO)cc(O)c1=O [Compound 29], the IC50 was 100 to 1000 nM.
For O=C(O)c1nn(-c2cccc(OC(F)(F)F)c2)cc(O)c1=O [Compound 30], the IC50 was ≥ 1000 nM.
For CS(=O)(=O)c1ccc(-n2cc(O)c(=O)c(C(=O)O)n2)cc1 [Compound 31], the IC50 was 100 to 1000 nM.
With O=C(O)c1nn(-c2ccc3c(c2)OCCO3)cc(O)c1=O [Compound 32] the IC50 was 100 to 1000 nM.
Work on O=C(O)c1nn(-c2ccc3cn[nH]c3c2)cc(O)c1=O [Compound 33] yielded an IC50 of 100 to 1000 nM.
CCc1ccccc1-c1ccccc1-n1cc(O)c(=O)c(C(=O)O)n1 [Compound 34] gave an IC50 of 100 to 1000 nM.
Molecule N#Cc1ccc(-c2ccccc2-n2cc(O)c(=O)c(C(=O)O)n2)cc1 [Compound 36] has an IC50 of 100 to 1000 nM.
Work on CC(C)Cc1ccc(-c2ccccc2-n2cc(O)c(=O)c(C(=O)O)n2)cc1 [Compound 37] yielded an IC50 of 100 to 1000 nM.
Molecule Cc1ccccc1-c1ccccc1-n1cc(O)c(=O)c(C(=O)O)n1 [Compound 38] has an IC50 of 100 to 1000 nM.
With CC(C)c1ccccc1-c1ccccc1-n1cc(O)c(=O)c(C(=O)O)n1 [Compound 39] the IC50 was 100 to 1000 nM.
Work on O=C(O)c1nn(-c2ccccc2-c2ccccc2OC(F)(F)F)cc(O)c1=O [Compound 40] yielded an IC50 of 100 to 1000 nM.
O=C(O)c1nn(-c2ccccc2N2CCOCC2)cc(O)c1=O [Compound 41] gave an IC50 of 100 to 1000 nM.
For O=C(O)c1nn(-c2ccc3[nH]ncc3c2)cc(O)c1=O [Compound 42], the IC50 was 100 to 1000 nM.
Molecule O=C(O)c1nn(-c2ccc(Oc3ccccc3)cc2)cc(O)c1=O [Compound 43] has an IC50 of 100 to 1000 nM.
In the case of CCOC(=O)c1nn(-c2ccccc2S(=O)(=O)c2ccccc2)cc(O)c1=O [Compound 44], the IC50 is reported as ≥ 1000 nM.
Molecule O=C(O)c1nn(-c2ccccc2N2CCCC2)cc(O)c1=O [Compound 200, 5-hydroxy-4-oxo-1-(2-(pyrrolidin-1-yl)phenyl)-1,4-dihydropyridazine-3-carboxylic acid] has an IC50 of 100 to 1000 nM.
In the case of O=C(O)c1nn(-c2cc(C(F)(F)F)ccc2N2CCCC2)cc(O)c1=O [Compound 201], the IC50 is reported as 100 to 1000 nM.
In the case of CC1CCN(c2ccccc2-n2cc(O)c(=O)c(C(=O)O)n2)CC1 [Compound 202], the IC50 is reported as 100 to 1000 nM.
CN1CCN(c2ccccc2-n2cc(O)c(=O)c(C(=O)O)n2)CC1 [Compound 204] was tested, and the IC50 was ≥ 1000 nM.
In the case of CCN1CCN(c2ccccc2-n2cc(O)c(=O)c(C(=O)O)n2)CC1 [Compound 205], the IC50 is reported as ≥ 1000 nM.
In the case of CC(C)(C)C1CCN(c2ccccc2-n2cc(O)c(=O)c(C(=O)O)n2)CC1 [Compound 208], the IC50 is reported as 100 to 1000 nM.
CC1(C)CCCN(c2ccccc2-n2cc(O)c(=O)c(C(=O)O)n2)C1 [Compound 209] was tested, and the IC50 was 100 to 1000 nM.
Cc1ccc(C)c(-c2ccccc2-n2cc(O)c(=O)c(C(=O)O)n2)c1 [Compound 300, 1-(2′,5′-dimethylbiphenyl-2-yl)-5-hydroxy-4-oxo-1,4-dihydropyidazine-3-carboxylic acid] was tested, and the IC50 was 100 to 1000 nM.
For Cc1cc(C)cc(-c2ccccc2-n2cc(O)c(=O)c(C(=O)O)n2)c1 [Compound 301], the IC50 was 100 to 1000 nM.
CC(C)(C)c1ccc(-c2ccccc2-n2cc(O)c(=O)c(C(=O)O)n2)cc1 [Compound 302] gave an IC50 of 100 to 1000 nM.
Cc1ccc(-c2ccccc2-n2cc(O)c(=O)c(C(=O)O)n2)cc1 [Compound 303] was tested, and the IC50 was 100 to 1000 nM.
For CC(C)(C)OC(=O)N1CCC(c2ccccc2-n2cc(O)c(=O)c(C(=O)O)n2)CC1 [Compound 304], the IC50 was ≥ 1000 nM.
Work on Cc1cc(F)ccc1-c1ccccc1-n1cc(O)c(=O)c(C(=O)O)n1 [Compound 305] yielded an IC50 of 100 to 1000 nM.
O=C(O)c1nn(-c2ccccc2-c2ccc(F)cc2)cc(O)c1=O [Compound 306] was tested, and the IC50 was 100 to 1000 nM.
O=C(O)c1nn(-c2ccccc2-c2ccc(C(F)(F)F)cc2)cc(O)c1=O [Compound 307] gave an IC50 of 100 to 1000 nM.
With O=C(O)c1nn(-c2ccccc2C2CCCCC2)cc(O)c1=O [Compound 308] the IC50 was 100 to 1000 nM.
Cc1cccc(-c2ccccc2-n2cc(O)c(=O)c(C(=O)O)n2)c1C [Compound 309] was tested, and the IC50 was ≥ 1000 nM.
With CC(C)Oc1ccccc1-c1ccccc1-n1cc(O)c(=O)c(C(=O)O)n1 [Compound 310] the IC50 was 100 to 1000 nM.
O=C(O)c1nn(-c2ccccc2-c2ccccc2Oc2ccccc2)cc(O)c1=O [Compound 311] was tested, and the IC50 was < 100 nM.
With O=C(O)c1nn(-c2ccccc2C2CCNCC2)cc(O)c1=O [Compound 312] the IC50 was ≥ 1000 nM.
O=C(O)c1nn(-c2ccccc2-c2ccc3cc[nH]c3c2)cc(O)c1=O [Compound 313] showed an IC50 of 100 to 1000 nM.
COc1ccccc1-c1ccccc1-n1cc(O)c(=O)c(C(=O)O)n1 [Compound 315] was tested, and the IC50 was 100 to 1000 nM.
O=C(O)c1nn(-c2ccccc2-c2cccc3c2oc2ccccc23)cc(O)c1=O [Compound 316] showed an IC50 of 100 to 1000 nM.
O=C(O)c1nn(-c2ccccc2-c2ccccc2OC2CCCCC2)cc(O)c1=O [Compound 317] was tested, and the IC50 was < 100 nM.
Work on COc1cccc(-c2ccccc2-n2cc(O)c(=O)c(C(=O)O)n2)c1 [Compound 318] yielded an IC50 of 100 to 1000 nM.
For COc1ccc(Cl)c(-c2ccccc2-n2cc(O)c(=O)c(C(=O)O)n2)c1 [Compound 322], the IC50 was 100 to 1000 nM.
With COc1cc(Cl)cc(-c2ccccc2-n2cc(O)c(=O)c(C(=O)O)n2)c1 [Compound 323] the IC50 was 100 to 1000 nM.
Cn1ccc2ccc(-c3ccccc3-n3cc(O)c(=O)c(C(=O)O)n3)cc21 [Compound 324] showed an IC50 of 100 to 1000 nM.
For CC(C)COc1ccccc1-c1ccccc1-n1cc(O)c(=O)c(C(=O)O)n1 [Compound 325], the IC50 was < 100 nM.
For COc1ccccc1CCn1cc(O)c(=O)c(C(=O)O)n1 [Compound 413], the IC50 was < 100 nM.
With COc1cccc(CCn2cc(O)c(=O)c(C(=O)O)n2)c1 [Compound 414] the IC50 was < 100 nM.
COc1ccc(CCn2cc(O)c(=O)c(C(=O)O)n2)cc1 [Compound 415] gave an IC50 of 100 to 1000 nM.
COc1ccc(CCn2cc(O)c(=O)c(C(=O)O)n2)cc1OC [Compound 417] gave an IC50 of 100 to 1000 nM.
Molecule O=C(O)c1nn(C2CCc3ccccc3C2=O)cc(O)c1=O (stereo not drawn) [Compound 418] has an IC50 of 100 to 1000 nM.
